Source: ChEMBL document CHEMBL1201862, “PubChem BioAssay data set” (2004)
Activity calls are given as the source filed them.

What was measured:
[1] = molecular target: Lysine-specific demethylase 4C (Homo sapiens, UniProt Q9H3R0); assay: inhibition of JMJD2C H3K9me3 demethylation – biochemical, DELFIA europium, cherry-picked samples, dose response (AID 488835); format: functional
[2] = NIH-3T3 fibroblast cytotoxicity, dose response, cytotoxicity control, cell-based, fluorescence, Alamar Blue, secondary assay (AID 2327); format: functional;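 further: NIH-3T3 mouse fibroblasts cultured with fluconazole at 8 µg/mL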
[3] = luciferase reporter signal suppression in cells – H4 neuroglioma cells, luminescence, dose response (AID 1990); format: functional, cell-based
[4] = Luminescence Cell-Based Dose Response HTS to Identify Inhibitors of 5'UTR Stem-Loop Driven Prion Protein mRNA Translation in H4 Neuroglioblastoma Cells. [Related pubchem assays: 1827 (Project Summary), 1813 (Primary HTS)]; format: functional
[5] = alpha-synuclein stem-loop luciferase translation blockers – H4 neuroglioma cells, luminescence, confirmation (AID 1988); format: functional, cell-based
[6] = fluconazole-exposed Candida albicans growth modulators – fluorescence, retest, confirmation (AID 2467); format: functional, cell-based
[7] = molecular target: Bifunctional protein GlmU (Mycobacterium tuberculosis, UniProt P9WMN3); assay: Inhibitors of Mycobacterial Glucosamine-1-phosphate acetyl transferase (GlmU). Secondary screen.; parameters: species or system Mycobacterium tuberculosis H37Rv
[8] = molecular target: Induced myeloid leukemia cell differentiation protein Mcl-1 (Homo sapiens, UniProt Q07820); format: functional
[9] = molecular target: T1, Replicative DNA helicase DnaB (Mycobacterium tuberculosis, UniProt P9WMR3); assay: DnaB intein splicing inhibitors, dose response, biochemical, cell-free fluorescence (AID 449749); format: functional
T1 sequence (P9WMR3 whole entry): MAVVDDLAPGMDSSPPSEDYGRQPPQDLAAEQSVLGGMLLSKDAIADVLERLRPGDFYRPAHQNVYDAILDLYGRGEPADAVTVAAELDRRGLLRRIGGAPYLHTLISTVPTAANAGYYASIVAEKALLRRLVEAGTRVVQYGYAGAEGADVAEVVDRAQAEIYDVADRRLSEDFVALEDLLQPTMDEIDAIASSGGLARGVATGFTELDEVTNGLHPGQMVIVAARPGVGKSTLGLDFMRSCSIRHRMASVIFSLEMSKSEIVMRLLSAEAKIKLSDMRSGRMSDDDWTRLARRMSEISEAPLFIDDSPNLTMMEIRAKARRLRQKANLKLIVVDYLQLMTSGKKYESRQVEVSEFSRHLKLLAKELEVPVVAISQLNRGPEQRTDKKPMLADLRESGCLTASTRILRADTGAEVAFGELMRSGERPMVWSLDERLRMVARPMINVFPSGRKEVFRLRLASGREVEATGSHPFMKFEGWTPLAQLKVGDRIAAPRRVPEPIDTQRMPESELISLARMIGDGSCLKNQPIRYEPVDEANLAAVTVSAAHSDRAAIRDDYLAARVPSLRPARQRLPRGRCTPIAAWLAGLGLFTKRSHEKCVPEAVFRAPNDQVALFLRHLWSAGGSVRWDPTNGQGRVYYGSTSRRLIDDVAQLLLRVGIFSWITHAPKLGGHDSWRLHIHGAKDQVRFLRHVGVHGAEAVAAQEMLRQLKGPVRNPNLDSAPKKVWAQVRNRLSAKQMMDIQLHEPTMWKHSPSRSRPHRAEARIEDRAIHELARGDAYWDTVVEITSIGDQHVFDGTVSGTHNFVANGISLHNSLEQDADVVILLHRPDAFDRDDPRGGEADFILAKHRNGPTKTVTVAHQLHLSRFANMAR

Protein RecA = molecular target: T2, Protein RecA (Mycobacterium tuberculosis, UniProt P9WHJ3); assay: Fluorescence Cell-Free Homogeneous Dose Retest to Identify Inhibitors of RecA-Intein Splicing Activity. [Related pubchem assays (depositor defined):AID2097, AID2223, AID489010, AID492950]; format: functional
T2 sequence (P9WHJ3 whole entry): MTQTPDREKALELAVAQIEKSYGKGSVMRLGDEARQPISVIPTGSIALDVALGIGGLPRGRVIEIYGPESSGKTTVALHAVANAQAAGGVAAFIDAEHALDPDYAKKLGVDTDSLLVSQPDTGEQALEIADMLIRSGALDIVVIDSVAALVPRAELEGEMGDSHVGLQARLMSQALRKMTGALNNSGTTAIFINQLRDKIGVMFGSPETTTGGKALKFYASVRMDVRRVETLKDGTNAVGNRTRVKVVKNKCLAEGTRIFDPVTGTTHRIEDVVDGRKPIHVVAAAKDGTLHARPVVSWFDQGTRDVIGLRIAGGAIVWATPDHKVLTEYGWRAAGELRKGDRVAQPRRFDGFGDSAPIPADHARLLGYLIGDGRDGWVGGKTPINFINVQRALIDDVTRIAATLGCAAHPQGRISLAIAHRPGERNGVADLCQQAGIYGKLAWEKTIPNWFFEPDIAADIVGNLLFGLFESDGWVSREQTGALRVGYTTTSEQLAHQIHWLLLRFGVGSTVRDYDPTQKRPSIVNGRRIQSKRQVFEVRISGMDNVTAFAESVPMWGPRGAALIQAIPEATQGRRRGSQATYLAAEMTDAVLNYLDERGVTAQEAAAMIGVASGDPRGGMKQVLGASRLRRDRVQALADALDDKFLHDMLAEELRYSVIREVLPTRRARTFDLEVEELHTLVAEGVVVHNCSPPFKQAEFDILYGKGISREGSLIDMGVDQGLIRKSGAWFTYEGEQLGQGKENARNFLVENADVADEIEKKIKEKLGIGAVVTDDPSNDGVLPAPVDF

INS1 = assay: INS-1E survival protection against cytokine death – cell-based, luminescence, retest, dose response (AID 449756); format: functional; conditions: Rattus norvegicus;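 further: cell death triggered by IL-1 beta plus TNF-alpha plus IFN-gamma mixture; protective hits raise ATP signal compared with cytokine alone wells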
Caspase-6 = molecular target: T3, Caspase-6 (Homo sapiens, UniProt P55212); assay: inhibition of CASP6 peptide cleavage – biochemical, VEID-R110 fluorescence, cherry-pick, dose response (AID 720632)
T3 sequence (P55212 whole entry): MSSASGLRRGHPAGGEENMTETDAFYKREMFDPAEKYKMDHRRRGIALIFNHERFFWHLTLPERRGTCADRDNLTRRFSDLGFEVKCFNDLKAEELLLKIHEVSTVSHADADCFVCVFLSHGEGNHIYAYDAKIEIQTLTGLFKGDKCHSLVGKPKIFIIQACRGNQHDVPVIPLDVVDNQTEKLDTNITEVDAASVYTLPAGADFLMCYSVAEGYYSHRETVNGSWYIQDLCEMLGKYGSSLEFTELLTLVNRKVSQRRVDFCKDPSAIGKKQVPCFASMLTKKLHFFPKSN

cells [10] = format: functional, cell-based
cells [11] = format: functional, cell-based; remark: listed apart in the source
Exodeoxyribonuclease V = Exodeoxyribonuclease V (Escherichia coli (strain K12), UniProt P04993+P07648+P08394); assay: RecBCD inhibition via phage-restricted bacterial growth – absorbance, V66 E. coli, mutant T4 phage, counter-screen for AddAB inhibitor project, dose response (AID 492957); format: functional, cell-based, Escherichia coli str. K-12 substr. MG1655
[12] = Counterscreen for AddAB inhibitors: absorbance-based bacterial cell-based high throughput dose response assay for inhibitors of bacterial viability. [Related pubchem assays (depositor defined):AID435030, AID449728, AID449731, AID488942, AID488955, AID488956]; format: functional
Galanin receptor type 3 = Galanin receptor type 3 (Homo sapiens, UniProt O60755); assay: Fluorescence-based cell-based primary high throughput dose response assay to identify antagonists of the Galanin Receptor 3 (GalR3).; format: functional
cells [13] = format: functional, cell-based; conditions: HEK-CNG
Cytochrome P450 2C19 = Cytochrome P450 2C19 (Homo sapiens, UniProt P33261); assay: Cytochrome panel assay with activity outcomes. Panel member name: p450-cyp2c19 Compounds with AC50 equal or less than 10 uM are considered active; format: functional; conditions: read-out: AC50
Cytochrome P450 1A2 = molecular target: T4, Cytochrome P450 1A2 (Homo sapiens, UniProt P05177);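 further: PubChem cytochrome P450 panel assay, CYP1A2 panel member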
T4 sequence (P05177 whole entry): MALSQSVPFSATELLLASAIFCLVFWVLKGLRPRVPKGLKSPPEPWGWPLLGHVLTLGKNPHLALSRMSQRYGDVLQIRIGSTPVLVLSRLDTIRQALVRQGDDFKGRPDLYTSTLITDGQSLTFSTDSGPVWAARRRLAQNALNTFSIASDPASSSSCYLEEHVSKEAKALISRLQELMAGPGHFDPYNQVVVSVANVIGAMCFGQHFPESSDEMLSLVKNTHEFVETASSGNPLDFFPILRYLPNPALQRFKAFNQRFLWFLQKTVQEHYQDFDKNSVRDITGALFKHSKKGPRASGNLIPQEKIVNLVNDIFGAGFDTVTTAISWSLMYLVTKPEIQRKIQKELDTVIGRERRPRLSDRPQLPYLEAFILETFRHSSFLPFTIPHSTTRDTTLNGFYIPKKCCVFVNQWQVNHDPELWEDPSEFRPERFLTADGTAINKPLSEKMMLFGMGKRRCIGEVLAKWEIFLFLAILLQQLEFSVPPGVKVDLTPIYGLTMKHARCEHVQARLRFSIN

Cytochrome P450 2D6 = Cytochrome P450 2D6 (Homo sapiens, UniProt P10635);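 further: CYP2D6 member of a cytochrome P450 panel assay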
Cytochrome P450 2C9 = Cytochrome P450 2C9 (Homo sapiens, UniProt P11712)
[14] = A cytotoxicity screen of small molecule inhibitors of the PhoP region in Salmonella typhi identified in the primary screen. [Related pubchem assays: 1850, 1864, 1985 ]; format: functional
[15] = molecular target: T5, Apoptotic protease-activating factor 1 (Homo sapiens, UniProt O14727); format: functional
T5 sequence (O14727 whole entry): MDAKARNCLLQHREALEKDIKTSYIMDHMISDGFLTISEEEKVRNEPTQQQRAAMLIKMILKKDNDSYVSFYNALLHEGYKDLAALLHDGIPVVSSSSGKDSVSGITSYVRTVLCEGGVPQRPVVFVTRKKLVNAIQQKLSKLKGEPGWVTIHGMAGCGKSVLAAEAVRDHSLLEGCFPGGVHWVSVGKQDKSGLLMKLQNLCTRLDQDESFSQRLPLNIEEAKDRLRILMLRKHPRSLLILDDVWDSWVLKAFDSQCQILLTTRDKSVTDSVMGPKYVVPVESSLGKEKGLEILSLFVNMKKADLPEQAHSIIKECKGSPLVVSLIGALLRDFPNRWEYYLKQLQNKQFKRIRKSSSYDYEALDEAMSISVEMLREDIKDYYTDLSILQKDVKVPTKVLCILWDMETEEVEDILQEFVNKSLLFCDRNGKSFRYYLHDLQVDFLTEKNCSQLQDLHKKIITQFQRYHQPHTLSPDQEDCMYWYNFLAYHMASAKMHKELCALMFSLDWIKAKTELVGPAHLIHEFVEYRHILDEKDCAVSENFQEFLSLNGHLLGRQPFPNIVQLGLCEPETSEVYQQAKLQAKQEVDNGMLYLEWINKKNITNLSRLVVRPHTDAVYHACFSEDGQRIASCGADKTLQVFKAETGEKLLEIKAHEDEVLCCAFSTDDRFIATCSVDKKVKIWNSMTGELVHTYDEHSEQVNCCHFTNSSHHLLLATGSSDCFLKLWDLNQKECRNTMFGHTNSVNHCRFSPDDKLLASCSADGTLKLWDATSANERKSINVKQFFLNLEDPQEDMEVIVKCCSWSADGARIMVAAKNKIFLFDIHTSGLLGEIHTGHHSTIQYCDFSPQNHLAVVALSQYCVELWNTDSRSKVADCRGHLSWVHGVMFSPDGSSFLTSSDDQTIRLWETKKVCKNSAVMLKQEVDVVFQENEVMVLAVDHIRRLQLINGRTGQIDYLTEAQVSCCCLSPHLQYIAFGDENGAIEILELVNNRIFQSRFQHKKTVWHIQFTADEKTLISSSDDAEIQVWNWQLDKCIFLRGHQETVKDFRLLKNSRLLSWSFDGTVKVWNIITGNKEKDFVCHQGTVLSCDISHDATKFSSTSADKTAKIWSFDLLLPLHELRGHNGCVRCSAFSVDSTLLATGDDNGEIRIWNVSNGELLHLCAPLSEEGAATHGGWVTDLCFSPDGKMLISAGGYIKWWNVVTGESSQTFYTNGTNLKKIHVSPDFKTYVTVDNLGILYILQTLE

Sequence of Lysine-specific demethylase 4C (Q9H3R0 whole entry): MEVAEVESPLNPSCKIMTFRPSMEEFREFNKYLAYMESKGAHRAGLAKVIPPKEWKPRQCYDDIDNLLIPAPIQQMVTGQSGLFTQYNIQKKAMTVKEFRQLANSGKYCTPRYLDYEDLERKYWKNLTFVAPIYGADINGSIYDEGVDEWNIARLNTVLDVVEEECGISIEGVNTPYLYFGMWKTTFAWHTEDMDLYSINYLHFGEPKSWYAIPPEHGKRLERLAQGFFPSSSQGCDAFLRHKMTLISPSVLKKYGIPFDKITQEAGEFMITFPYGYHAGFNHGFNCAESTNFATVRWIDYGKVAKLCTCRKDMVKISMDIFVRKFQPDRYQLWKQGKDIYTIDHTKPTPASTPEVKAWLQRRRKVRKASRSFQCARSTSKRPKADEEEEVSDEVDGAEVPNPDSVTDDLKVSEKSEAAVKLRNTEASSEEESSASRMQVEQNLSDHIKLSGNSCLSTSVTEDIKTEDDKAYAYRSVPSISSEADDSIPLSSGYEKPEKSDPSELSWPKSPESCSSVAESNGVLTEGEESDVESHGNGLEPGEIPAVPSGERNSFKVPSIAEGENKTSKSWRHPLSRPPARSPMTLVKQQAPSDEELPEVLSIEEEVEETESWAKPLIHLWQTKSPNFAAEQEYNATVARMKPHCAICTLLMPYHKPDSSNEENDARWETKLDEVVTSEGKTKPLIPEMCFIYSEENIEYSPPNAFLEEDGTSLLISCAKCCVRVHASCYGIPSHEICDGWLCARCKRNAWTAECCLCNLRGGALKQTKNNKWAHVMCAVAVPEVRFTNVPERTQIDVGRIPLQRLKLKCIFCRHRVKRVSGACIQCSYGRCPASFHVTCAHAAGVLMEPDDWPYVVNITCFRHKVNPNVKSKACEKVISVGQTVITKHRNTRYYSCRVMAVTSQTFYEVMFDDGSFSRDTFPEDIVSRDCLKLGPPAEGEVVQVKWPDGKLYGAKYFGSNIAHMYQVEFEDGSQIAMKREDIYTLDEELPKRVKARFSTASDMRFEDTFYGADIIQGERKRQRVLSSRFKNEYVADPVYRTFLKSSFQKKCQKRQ
Sequence of Cytochrome P450 2D6 (P10635 whole entry): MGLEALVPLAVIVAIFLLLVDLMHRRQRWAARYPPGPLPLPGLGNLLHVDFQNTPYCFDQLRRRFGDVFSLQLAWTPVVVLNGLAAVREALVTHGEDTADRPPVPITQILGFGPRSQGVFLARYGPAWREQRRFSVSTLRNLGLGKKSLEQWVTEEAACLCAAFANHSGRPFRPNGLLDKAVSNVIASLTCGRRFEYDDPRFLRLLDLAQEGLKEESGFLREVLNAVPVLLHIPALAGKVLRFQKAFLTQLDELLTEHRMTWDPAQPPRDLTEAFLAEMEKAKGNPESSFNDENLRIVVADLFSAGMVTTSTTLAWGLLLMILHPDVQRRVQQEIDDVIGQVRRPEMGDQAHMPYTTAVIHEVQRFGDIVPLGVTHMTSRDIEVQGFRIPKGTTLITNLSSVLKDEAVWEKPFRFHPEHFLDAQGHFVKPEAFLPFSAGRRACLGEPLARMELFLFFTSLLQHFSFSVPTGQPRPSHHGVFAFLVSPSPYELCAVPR
Sequence of Exodeoxyribonuclease V (P04993 whole entry): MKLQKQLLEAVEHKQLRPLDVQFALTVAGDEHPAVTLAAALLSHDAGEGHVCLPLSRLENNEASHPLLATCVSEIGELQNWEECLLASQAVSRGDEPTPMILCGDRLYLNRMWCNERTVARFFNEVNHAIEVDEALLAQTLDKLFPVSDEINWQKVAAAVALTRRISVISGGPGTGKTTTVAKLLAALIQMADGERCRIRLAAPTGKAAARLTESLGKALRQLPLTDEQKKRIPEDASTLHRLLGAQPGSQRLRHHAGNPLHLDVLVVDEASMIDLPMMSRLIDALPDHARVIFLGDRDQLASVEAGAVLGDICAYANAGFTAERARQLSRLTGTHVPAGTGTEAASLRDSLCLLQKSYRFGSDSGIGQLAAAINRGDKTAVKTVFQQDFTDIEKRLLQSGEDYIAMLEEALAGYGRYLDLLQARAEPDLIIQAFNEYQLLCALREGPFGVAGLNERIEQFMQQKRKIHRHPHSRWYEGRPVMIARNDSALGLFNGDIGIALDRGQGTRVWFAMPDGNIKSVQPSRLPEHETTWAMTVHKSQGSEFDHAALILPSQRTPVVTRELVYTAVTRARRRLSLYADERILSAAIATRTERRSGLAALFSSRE
Sequence of Exodeoxyribonuclease V (P07648 whole entry): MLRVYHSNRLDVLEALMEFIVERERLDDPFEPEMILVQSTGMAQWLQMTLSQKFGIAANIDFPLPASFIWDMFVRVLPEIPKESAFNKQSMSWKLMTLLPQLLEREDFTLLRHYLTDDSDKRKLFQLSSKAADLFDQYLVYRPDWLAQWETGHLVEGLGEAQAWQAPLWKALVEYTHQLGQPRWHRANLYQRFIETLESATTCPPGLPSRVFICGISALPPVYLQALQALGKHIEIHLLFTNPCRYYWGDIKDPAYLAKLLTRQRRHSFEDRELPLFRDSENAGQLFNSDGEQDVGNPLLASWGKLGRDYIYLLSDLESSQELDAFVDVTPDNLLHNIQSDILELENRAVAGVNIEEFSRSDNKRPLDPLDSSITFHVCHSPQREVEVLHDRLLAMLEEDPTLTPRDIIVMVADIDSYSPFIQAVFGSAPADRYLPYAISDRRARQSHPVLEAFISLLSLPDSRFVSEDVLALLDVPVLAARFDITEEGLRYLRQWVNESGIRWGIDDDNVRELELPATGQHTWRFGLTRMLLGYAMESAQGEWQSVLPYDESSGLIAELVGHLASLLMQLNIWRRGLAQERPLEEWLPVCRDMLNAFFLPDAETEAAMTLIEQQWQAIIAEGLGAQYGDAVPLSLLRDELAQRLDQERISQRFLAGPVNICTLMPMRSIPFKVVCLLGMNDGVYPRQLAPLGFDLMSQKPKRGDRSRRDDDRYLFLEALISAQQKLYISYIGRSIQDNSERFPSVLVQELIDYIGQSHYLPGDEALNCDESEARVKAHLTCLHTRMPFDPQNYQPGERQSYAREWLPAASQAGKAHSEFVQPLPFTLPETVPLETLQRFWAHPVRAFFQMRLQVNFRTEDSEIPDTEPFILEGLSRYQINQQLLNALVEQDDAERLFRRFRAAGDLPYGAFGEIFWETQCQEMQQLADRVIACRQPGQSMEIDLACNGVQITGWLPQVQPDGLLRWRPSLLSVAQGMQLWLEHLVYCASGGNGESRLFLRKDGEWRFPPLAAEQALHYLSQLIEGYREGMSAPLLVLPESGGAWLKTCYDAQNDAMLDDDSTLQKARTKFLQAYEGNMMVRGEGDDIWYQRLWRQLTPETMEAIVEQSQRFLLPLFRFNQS
Sequence of Exodeoxyribonuclease V (P08394 whole entry): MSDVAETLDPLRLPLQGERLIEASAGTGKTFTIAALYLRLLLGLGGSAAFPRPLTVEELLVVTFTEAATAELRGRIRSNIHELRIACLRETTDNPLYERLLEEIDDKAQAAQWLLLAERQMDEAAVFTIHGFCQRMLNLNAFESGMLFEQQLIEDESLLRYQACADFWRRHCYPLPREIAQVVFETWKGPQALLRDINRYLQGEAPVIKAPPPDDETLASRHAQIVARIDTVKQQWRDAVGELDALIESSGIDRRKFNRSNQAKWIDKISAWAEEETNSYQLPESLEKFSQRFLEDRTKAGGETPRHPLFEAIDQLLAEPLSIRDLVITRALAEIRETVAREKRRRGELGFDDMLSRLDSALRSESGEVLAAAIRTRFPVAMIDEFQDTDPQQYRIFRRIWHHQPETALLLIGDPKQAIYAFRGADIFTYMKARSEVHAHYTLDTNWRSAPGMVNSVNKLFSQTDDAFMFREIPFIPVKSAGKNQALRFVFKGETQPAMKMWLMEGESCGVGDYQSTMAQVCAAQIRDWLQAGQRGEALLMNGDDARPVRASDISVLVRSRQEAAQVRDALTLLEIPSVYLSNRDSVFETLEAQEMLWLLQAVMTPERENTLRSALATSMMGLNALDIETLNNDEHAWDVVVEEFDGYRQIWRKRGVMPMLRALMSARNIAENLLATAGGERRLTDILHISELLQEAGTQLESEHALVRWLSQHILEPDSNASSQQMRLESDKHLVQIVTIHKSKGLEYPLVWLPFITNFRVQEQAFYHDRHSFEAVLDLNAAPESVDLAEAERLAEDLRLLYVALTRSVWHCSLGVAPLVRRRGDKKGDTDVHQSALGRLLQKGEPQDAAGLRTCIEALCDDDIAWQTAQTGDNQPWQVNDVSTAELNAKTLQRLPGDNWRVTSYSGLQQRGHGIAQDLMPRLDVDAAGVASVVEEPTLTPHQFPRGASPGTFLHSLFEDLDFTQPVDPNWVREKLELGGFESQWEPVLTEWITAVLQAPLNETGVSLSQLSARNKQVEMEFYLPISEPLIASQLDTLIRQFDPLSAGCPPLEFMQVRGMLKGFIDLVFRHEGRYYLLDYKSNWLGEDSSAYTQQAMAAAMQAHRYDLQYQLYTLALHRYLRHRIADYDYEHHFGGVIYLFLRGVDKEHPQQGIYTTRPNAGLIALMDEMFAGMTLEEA
Sequence of Cytochrome P450 2C19 (P33261 whole entry): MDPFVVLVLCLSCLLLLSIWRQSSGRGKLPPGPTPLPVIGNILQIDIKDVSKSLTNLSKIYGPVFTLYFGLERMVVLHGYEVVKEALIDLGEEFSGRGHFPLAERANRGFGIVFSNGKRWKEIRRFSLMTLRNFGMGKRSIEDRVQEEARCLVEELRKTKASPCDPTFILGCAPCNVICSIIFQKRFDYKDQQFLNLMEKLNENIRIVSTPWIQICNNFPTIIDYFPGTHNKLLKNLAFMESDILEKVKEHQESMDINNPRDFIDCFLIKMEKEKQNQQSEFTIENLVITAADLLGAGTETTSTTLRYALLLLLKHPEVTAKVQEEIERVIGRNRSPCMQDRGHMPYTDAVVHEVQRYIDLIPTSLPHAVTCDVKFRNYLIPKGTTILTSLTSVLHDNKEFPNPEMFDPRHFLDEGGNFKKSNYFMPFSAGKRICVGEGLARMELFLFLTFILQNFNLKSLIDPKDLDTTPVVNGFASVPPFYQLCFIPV

SMILES | AC50 [1] | EC50 [2] | EC50 [6] | AC50 [9] | EC50 (Protein RecA) | AC50 (INS1) | IC50 (Exodeoxyribonuclease V) | IC50 [12] | AC50 (Cytochrome P450 2C19) | AC50 (Cytochrome P450 2D6) | further results
Cc1ccc2c(c1)N(CC(=O)NCC1CCCO1)C(=O)C(C(C)C)O2 (stereo not given) | 11.5 µM (active) | – | – | – | – | – | – | – | – | – | –
O=[N+]([O-])c1cc(/C=N/Nc2nc3ccccc3[nH]2)c(O)cc1O | 3.07 µM (active) | > 150 µM (inactive) | 2.33 µM (active) | 4.22 µM (active) | 6.73 µM (active) | 0.483 µM (active) | – | – | – | – | EC50 [3]: 9.68 µM (inconclusive); EC50 [4]: 11.2 µM (active); EC50 [5]: 3.81 µM (active); IC50 [7]: 125 µM (active); IC50 [8]: 6.08 µM (active); AC50 (Caspase-6): 5.37 µM (active)
Nc1nonc1-n1nnc(C(=O)N/N=C/c2cc(Br)ccc2O)c1CSC1=NCCS1 | – | 5.49 µM (active) | 0.299 µM (active) | – | – | 0.567 µM (active) | > 119 µM (inactive) | > 119 µM (inactive) | – | – | EC50 (cells [10]): 12.6 µM (active); EC50 (cells [11]): > 350 µM (not active); IC50 (Galanin receptor type 3): 1.24 µM (active); EC50 (cells [13]): > 29.9 µM (inactive)
CCc1ccc(N2CC(C(=O)N/N=C/c3cccc([N+](=O)[O-])c3)CC2=O)cc1 (stereo not given) | – | – | – | – | – | – | – | – | 0.316 µM (inconclusive) | inconclusive | AC50 (Cytochrome P450 1A2): 3.16 µM (inconclusive)
COc1ccc(C(=O)Nc2cccc(-c3cnc4ccccc4n3)c2)cc1 | – | – | – | – | – | – | – | – | 2.24 µM (inconclusive) | inconclusive | AC50 (Cytochrome P450 2C9): 1.78 µM (inconclusive)
CCCCNC1=CC(=O)C(=O)c2ccccc21 | – | – | – | 0.575 µM (active) | 0.669 µM (active) | 1.78 µM (active) | > 119 µM (inactive) | > 39.5 µM (inactive) | – | – | EC50 [14]: > 50 µM (active); IC50 [15]: 6.49 µM (active)
